Where a name gives a salt, the structure may show the parent alone. Read-outs that look alike come from different tables or passages of the source.
Experiments:
mixed bacterial inoculum [1] = conditions: for preservative efficacy (in words) / potentiation of the cationic compounds (in words): AIRFLEX 192; for Inoculations Passed: AIRFLEX 192 VAE polymer; for potentiation of the cationic compounds (in words): other metal chelating agent with cationic compound
Source text: The following procedure was used to assess the preservative efficacy of several cationic compounds in an anionic surfactant stabilized VAE copolymer emulsion containing less than 1000 ppm vinyl acetate monomer:
(§1) Aeromonas hydrophilia, Alcaligenes faecalis, Corynebacterium ammoniagenes, Enterobacter aerogenes, Escherichia coli, Klebsiella pneumoniae, Pseudomonas aeruginosa, Proteus vulgaris, Providencia rettgeri, Pseudomonas stutzeri, Shewanella putrefaciens, Serratia liquefaciens, Acinetobacter baumannii, Burkholderia cepacia, Chryseobacterium meningosepticum, Sphingobacterium spiritivorum, Ralstonia pickettii, and Gluconoacetobacter liquefaciens.
(§2) Each bacterial culture was individually grown on nutrient agar slants, except GABL was grown on potato dextrose agar slants, by inoculating the agar surfaces. The nutrient agar slants were incubated for 24-48 hours at 30° C. and the potato dextrose agar slants were incubated for 48-72 hours at 25° C. […] The washings from all of the slants were combined into one sterile, Erlenmeyer flask.
(§3) Rapid Automated Bacterial Impedance Technique (RABIT), supplied by Microbiology International, and manufactured by Don Whitley Scientific, Ltd. utilizes the principal of impedance microbiology to detect and assess microbial activity in a given sample. Using the RABIT, microbial metabolism is monitored by measuring the amount of carbon dioxide produced by actively respiring microorganisms. The electrodes in the RABIT test cells are partially covered with alkaline agar containing potassium hydroxide. As inoculated test samples are monitored on the RABIT, carbon dioxide produced from microbial metabolism is absorbed by the alkaline agar resulting in a change in conductivity. Conductivity is monitored with time and the time to reach a pre-specified rate of reduction in conductivity is termed the time to detection (TTD). Therefore, the shorter the TTD, the higher the number of microorganisms present. Failure can be defined as three successive decreases in conductivity equal to or greater than a pre-specified value (−10 microSiemens is recommended by the manufacturer) at any time during the 72 hour RABIT monitoring period. Alternatively, failure can be defined as a pre-specified total change in conductivity.
(§4) Samples (50 g each) of each test emulsion containing a test antimicrobial agent were inoculated with 1.0 mL of the mixed bacterial inoculum. After mixing well, the samples were then placed in a 30° C. incubator. After 1, 2, and 6 days of incubation, each sample was streak plated onto nutrient agar and potato dextrose agar to assess the level of surviving microorganisms. The nutrient agar plates were incubated at 30° C. for 48 hours before assessing the growth. […] On the seventh day of incubation, each test emulsion sample was inoculated again with a freshly prepared mixed bacterial inoculum, mixed well, then placed back into the incubator. The samples were again streak plated onto nutrient agar and potato dextrose agar after incubating for 1, 2, and 6 days since the second inoculation. On the fourteenth day after the test was initiated, the test emulsions were inoculated a third time with another freshly prepared mixed bacterial inoculum and then placed back into the incubator. The samples were again streak plated onto nutrient agar and potato dextrose agar after 1, 2, 6, and 13 days of incubation since the third inoculation to assess surviving microorganisms. Test failure is defined as a microbial viable count >300 CFU/10 μL observed from the nutrient agar or potato dextrose agar streak plate assessments.
(§5) A small amount of a microbial nutrient (typically yeast extract) was added to each emulsion test sample (50 g) containing a test antimicrobial agent. The resulting samples were then inoculated with 1.0 mL of the mixed bacterial inoculum. After mixing well, an aliquot (5 g) of each test sample was placed into separate RABIT indirect conductivity tubes.

mixed bacterial inoculum [2] = conditions: for preservative efficacy (in words) / potentiation of the cationic compounds (in words): AIRFLEX 410; for Inoculations Passed: AIRFLEX 410 VAE polymer; for potentiation of the cationic compounds (in words): other metal chelating agent with cationic compound
Source text: as §1, §2, §3, §4
as §5, with “tubes. The indirect conductivity tubes were then placed into the RABIT incubator modules set at 30° C. and the conductivity changes monitored for up to 72 hours. The remainder of each test sample was stored in a 30° C. incubator during the RABIT monitoring period.” for “tubes.”

yeasts and molds = assay: Fungal biochallenge test in Airflex 410 VAE polymer emulsion; conditions: for Growth on PDA / Surface Fungal Growth: 200 ppm; for Growth on PDA: streak plate after 28 days incubation; for Surface Fungal Growth: visual after 28 days at 25° C.
[3] = cationic compound alone, dosage of 300 ppm or similar dosages
[4] = biocide dosage 300 ppm active ingredient
[5] = metal chelating agent by itself
[6] = biocide dosage 1000 ppm active ingredient

## CCCCCCCCCC[N+](C)(C)CCCCCCCCCC.[Cl-] [BTC 1010, Didecyldimethylammonium chloride]
Mixed bacterial inoculum [1]; [3]
  preservative efficacy (in words): no preservative efficacy
Mixed bacterial inoculum [1]; [4]
  Inoculations Passed: 0
Mixed bacterial inoculum [2]; [3]
  preservative efficacy (in words): no preservative efficacy
Mixed bacterial inoculum [2]; [4]
  Inoculations Passed: 0
Yeasts and molds
  Growth on PDA: Dense
  Surface Fungal Growth: Moderate Growth

## CCCCCCCCCCCCCCCC[n+]1ccccc1 [CPC, cetylpyridinium chloride]
Mixed bacterial inoculum [1]; [4]
  Inoculations Passed: 0
Mixed bacterial inoculum [2]; [4]
  Inoculations Passed: 0

## O=C(O)CC(O)(CC(=O)O)C(=O)O [Citric acid, sodium salt]
Mixed bacterial inoculum [1]
  potentiation of the cationic compounds (in words): do not exhibit potentiation
Mixed bacterial inoculum [1]; [4]
  Inoculations Passed: 0
Mixed bacterial inoculum [2]
  potentiation of the cationic compounds (in words): do not exhibit potentiation

## CCCCCCCCCCCCNC(=N)N.Cl [DGH, n-dodecylguanidine hydrochloride]
Mixed bacterial inoculum [1]; biocide dosage 400 ppm active ingredient
  Inoculations Passed: 0
Mixed bacterial inoculum [2]; [4]
  Inoculations Passed: 0

## O=C([O-])CN(CCN(CC(=O)[O-])CC(=O)[O-])CC(=O)[O-].[Na+].[Na+].[Na+].[Na+] [EDTA salt, tetrasodium salt of ethylenediamine tetraacetic acid]
Mixed bacterial inoculum [1]; [5]
  preservative efficacy (in words): inadequate
Mixed bacterial inoculum [1]; [6]
  Inoculations Passed: 0
Mixed bacterial inoculum [2]; [5]
  preservative efficacy (in words): inadequate
Mixed bacterial inoculum [2]; [6]
  Inoculations Passed: 0
Yeasts and molds
  Growth on PDA: Dense
  Surface Fungal Growth: Slight Growth
Yeasts and molds; used by itself
  protection against the growth of yeasts and molds (in words): no protection

## O=C(O)/C=C\C(=O)O [Maleic acid, sodium salt]
Mixed bacterial inoculum [1]
  potentiation of the cationic compounds (in words): do not exhibit potentiation
Mixed bacterial inoculum [1]; [4]
  Inoculations Passed: 0
Mixed bacterial inoculum [2]
  potentiation of the cationic compounds (in words): do not exhibit potentiation

## O=C([O-])c1ccccc1O.[Na+] [Salicylic acid, sodium salt]
Mixed bacterial inoculum [1]; [4]
  Inoculations Passed: 0

## O=P([O-])([O-])[O-].[Na+].[Na+].[Na+] [Trisodium phosphate]
Mixed bacterial inoculum [1]; [4]
  Inoculations Passed: 0

Reference: patent US20040235982A1, “Polymer emulsions resistant to biodeterioration” (priority 2003, published 2004)
